Converted amounts (≈) assume the structure as drawn. Like-named read-outs stand apart in the source and are kept apart here.
Experiments:
A. baumannii ATCC 19606 = assay: MIC broth microdilution (NCCLS); format: cell-based, Acinetobacter baumannii; settings: Acinetobacter baumannii, ATCC19606, read-out: MIC
Procedure: (§1) Minimal Inhibitory Concentration (MIC) Determination. Bacteria (primary strain panel, TABLE 1). Susceptibility tests were performed following the recommendations from the National Committee for Clinical Standards (NCCLS). The MICs were determined by a broth microdilution technique using a final volume of 100 μl of cation-adjusted Mueller Hinton Broth (MHBCA) and a bacterial inoculum of 10^5-10^6 Colony Forming Units (CFU)/ml. The inocula were verified and precisely determined by applying 10-μl drops of 10-fold dilutions onto Triptic Soy Agar plates. The CFU were counted after an incubation of 24 h at 35° C. Any experiment showing an inoculum that was more or less than 10^5-10^6 CFU/ml was rejected. Control antibiotics and test compounds were prepared at a concentration equivalent to 2-fold the highest desired final concentration. Compounds were then diluted directly in the 96-well microtiter plates by serial 2-fold dilutions using a multichannel pipette. Microtiter plates were incubated during 24 h at 35° C. and growth was recorded by using a microtiterplate reader at 650 nm as well as by visual observation. The MIC was defined as the lowest concentration of compound yielding no visible growth. […] Fastidious bacteria. The medium used for Listeria monocytogenes, Neisseria meningitidis, and Campylobacter jejuni was MHBCA containing 2% laked horse blood. The medium used for Haemophilus influenzae and Branhamella (Moraxella) catarrhalis was HTM as recommended by the NCCLS. Cultures of these fastidious bacteria were incubated at 35° C. in a 5% CO2 atmosphere. […] The medium used for Bacteroides fragilis was Wilkins Chalgren broth and growth was allowed under an anaerobic atmosphere at 35° C. for 48 hours.

B. catarrhalis ATCC 8176 [1] = assay: MIC broth microdilution (NCCLS), fastidious bacteria; format: cell-based, Branhamella (Moraxella) catarrhalis; settings: Moraxella catarrhalis, ATCC8176, HTM, 5% CO2
Procedure: as §1

[2] = tested on: S. epidermidis ATCC 12228; assay: MIC broth microdilution (NCCLS); format: cell-based, Staphylococcus epidermidis; settings: Staphylococcus epidermidis, ATCC12228; S. epidermidis ATCC 12228; read-out: MIC
Procedure: as §1

E. faecium ATCC 35667 = assay: MIC broth microdilution (NCCLS); format: cell-based, Enterococcus faecium; settings: Enterococcus faecium, ATCC35667, E. faecium ATCC 35667; read-out: MIC
Procedure: as §1

E. coli ATCC 25922 = assay: MIC broth microdilution (NCCLS); format: cell-based, Escherichia coli; settings: Escherichia coli, ATCC25922, E. coli ATCC 25922 (Reference); read-out: MIC
Procedure: as §1

[3] = tested on: S. saprophyticus ATCC 15305; assay: MIC broth microdilution (NCCLS); format: cell-based, Staphylococcus saprophyticus; settings: Staphylococcus saprophyticus, ATCC15305; S. saprophyticus ATCC 15305; read-out: MIC
Procedure: as §1

E. faecalis ATCC 29212 = assay: MIC broth microdilution (NCCLS); format: cell-based, Enterococcus faecalis; settings: Enterococcus faecalis, ATCC29212; E. faecalis ATCC 29212; read-out: MIC
Procedure: as §1

H. influenzae ATCC 49247 [4] = assay: Minimal Bactericidal Concentration (MBC); format: cell-based; settings: Haemophilus influenzae, ATCC49247, 99.9% killing
Procedure: (§2) Minimal Bactericidal Concentration (MBC). After the microtiter plates were read for the determination of the MIC, a 10-μl sample of each clear well (at least 5 wells without visible growth) was applied onto TSA plates for viable counts determination.
(§3) Petri dishes were incubated at 35° C. for exactly 24 h and bacterial colonies were counted.

H. influenzae ATCC 49766 [5] = assay: Minimal Bactericidal Concentration (MBC); format: cell-based; settings: Haemophilus influenzae, ATCC49766, 99.9% killing
Procedure: as §2, §3

E. faecium VanA = assay: MIC broth microdilution, antibiotic resistant strain panel; format: cell-based; settings: Enterococcus faecium; multi-resistant E. faecium VanA; read-out: MIC
Procedure: as §1
(§4) Finally, compounds were also tested against populations of various clinical strains (antibiotic resistant strain panel, TABLE 1).

H. influenzae ATCC 49247 [6] = assay: MIC broth microdilution (NCCLS), fastidious bacteria; format: cell-based; settings: Haemophilus influenzae, ATCC49247, HTM, 5% CO2
Procedure: as §1

H. influenzae ATCC 49766 [7] = assay: as above; format: cell-based; settings: Haemophilus influenzae, ATCC49766, HTM, 5% CO2
Procedure: as §1

[8] = tested on: Y. enterocolytica ATCC 23715; assay: MIC broth microdilution (NCCLS); format: cell-based, Yersinia enterocolytica; settings: Yersinia, ATCC23715, read-out: MIC
Procedure: as §1

S. typhimurium ATCC14028 = assay: MIC broth microdilution (NCCLS); format: cell-based, Salmonella typhimurium; settings: Salmonella enterica; S. typhimurium ATCC14028; read-out: MIC
Procedure: as §1

S. aureus ATCC 29213 = assay: MIC broth microdilution (NCCLS); format: cell-based, Staphylococcus aureus; settings: Staphylococcus aureus, ATCC29213; S. aureus ATCC 29213; read-out: MIC
Procedure: as §1

B. catarrhalis ATCC 8176 [9] = assay: Minimal Bactericidal Concentration (MBC); format: cell-based, Branhamella (Moraxella) catarrhalis; settings: Moraxella catarrhalis, ATCC8176, 99.9% killing
Procedure: as §2, §3

S. aureus MRSA COL = assay: MIC broth microdilution (NCCLS); format: cell-based, Staphylococcus aureus; settings: Staphylococcus aureus, MRSA
Procedure: as §1, with “hours. […]” for “hours.”

MRSA strain Sa211c = assay: MIC broth microdilution, antibiotic resistant strain panel; format: cell-based, Staphylococcus aureus; settings: Staphylococcus aureus; multi-resistant MRSA strain Sa211c; read-out: MIC
Procedure: as §1, §4

MRSA strain Sa248c = assay: as above; format: cell-based, Staphylococcus aureus; settings: Staphylococcus aureus; multi-resistant MRSA strain Sa248c; read-out: MIC
Procedure: as §1, §4

MRSA strain Sa253c = assay: as above; format: cell-based, Staphylococcus aureus; settings: Staphylococcus aureus; multi-resistant MRSA strain Sa253c; read-out: MIC
Procedure: as §1, §4

MRSA strain Sa249c = assay: as above; format: cell-based, Staphylococcus aureus; settings: Staphylococcus aureus; multi-resistant MRSA strain Sa249c; read-out: MIC
Procedure: as §1, §4

MRSA strain Sa234c = assay: as above; format: cell-based, Staphylococcus aureus; settings: Staphylococcus aureus; multi-resistant MRSA strain Sa234c; read-out: MIC
Procedure: as §1, §4

MRSA strain Sa224c = assay: as above; format: cell-based, Staphylococcus aureus; settings: Staphylococcus aureus; multi-resistant MRSA strain Sa224c; read-out: MIC
Procedure: as §1, §4

MRSA strain Sa220c = assay: as above; format: cell-based, Staphylococcus aureus; settings: Staphylococcus aureus; multi-resistant MRSA strain Sa220c; read-out: MIC
Procedure: as §1, §4

MRSA strain Sa212c = assay: as above; format: cell-based, Staphylococcus aureus; settings: Staphylococcus aureus; multi-resistant MRSA strain Sa212c; read-out: MIC
Procedure: as §1, §4

MRSA strain Sa228c = assay: as above; format: cell-based, Staphylococcus aureus; settings: Staphylococcus aureus; multi-resistant MRSA strain Sa228c; read-out: MIC
Procedure: as §1, §4

CO/N=C(\C(=O)N[C@@H]1C(=O)N2C(C(=O)O)=C(COC(C)=O)CS[C@H]12)c1csc(N)n1 [Cefotaxime]
MIC (A. baumannii ATCC 19606): 16 µg/mL (≈ 35.1 µM) | MIC (B. catarrhalis ATCC 8176 [1]): 0.03 µg/mL (≈ 0.0659 µM) | MIC [2]: 0.5 to 1 µg/mL (≈ 1.1 to 2.2 µM) | MIC (E. faecium ATCC 35667): 16 µg/mL (≈ 35.1 µM) | MIC (E. coli ATCC 25922): 0.06 to 0.12 µg/mL (≈ 0.132 to 0.263 µM) | MIC [3]: 8 µg/mL (≈ 17.6 µM) | MIC (E. faecalis ATCC 29212): 2 to 8 µg/mL (≈ 4.39 to 17.6 µM) | MBC (H. influenzae ATCC 49247 [4]): 0.12 µg/mL (≈ 0.263 µM) | MBC (H. influenzae ATCC 49766 [5]): 0.008 µg/mL (≈ 0.0176 µM) | MIC (E. faecium VanA): > 128 µg/mL | MIC (H. influenzae ATCC 49247 [6]): 0.12 µg/mL (≈ 0.263 µM) | MIC (H. influenzae ATCC 49766 [7]): 0.008 µg/mL (≈ 0.0176 µM) | MIC [8]: > 2 µg/mL | MIC (S. typhimurium ATCC14028): > 2 µg/mL | MIC (S. aureus ATCC 29213): 1 to 2 µg/mL (≈ 2.2 to 4.39 µM) | MBC (B. catarrhalis ATCC 8176 [9]): 0.06 µg/mL (≈ 0.132 µM) | MIC (S. aureus MRSA COL): 512 µg/mL (≈ 1120 µM)

CC[C@H]1OC(=O)[C@H](C)[C@@H](O[C@H]2C[C@@](C)(OC)[C@@H](O)[C@H](C)O2)[C@H](C)[C@@H](O[C@@H]2O[C@H](C)C[C@H](N(C)C)[C@H]2O)[C@](C)(O)C[C@@H](C)C(=O)[C@H](C)[C@@H](O)[C@]1(C)O [Erythromycin]
MIC (B. catarrhalis ATCC 8176 [1]): 0.06 µg/mL (≈ 0.0818 µM) | MIC [2]: 0.5 µg/mL (≈ 0.681 µM) | MIC (E. faecium ATCC 35667): 2 µg/mL (≈ 2.73 µM) | MIC (E. coli ATCC 25922): 64 µg/mL (≈ 87.2 µM) | MIC [3]: 0.25 µg/mL (≈ 0.341 µM) | MIC (E. faecalis ATCC 29212): 2 to 4 µg/mL (≈ 2.73 to 5.45 µM) | MBC (H. influenzae ATCC 49247 [4]): 2 µg/mL (≈ 2.73 µM) | MBC (H. influenzae ATCC 49766 [5]): 16 µg/mL (≈ 21.8 µM) | MIC (H. influenzae ATCC 49247 [6]): 2 µg/mL (≈ 2.73 µM) | MIC (H. influenzae ATCC 49766 [7]): 8 µg/mL (≈ 10.9 µM) | MIC (S. aureus ATCC 29213): 0.5 µg/mL (≈ 0.681 µM) | MIC (MRSA strain Sa211c): > 32 µg/mL | MIC (MRSA strain Sa248c): > 128 µg/mL | MIC (MRSA strain Sa253c): > 128 µg/mL | MIC (MRSA strain Sa249c): > 128 µg/mL | MIC (MRSA strain Sa234c): > 32 µg/mL | MIC (MRSA strain Sa224c): > 32 µg/mL | MIC (MRSA strain Sa220c): 0.5 µg/mL (≈ 0.681 µM) | MIC (MRSA strain Sa212c): > 32 µg/mL | MIC (MRSA strain Sa228c): > 32 µg/mL | MBC (B. catarrhalis ATCC 8176 [9]): 0.12 µg/mL (≈ 0.164 µM) | MIC (S. aureus MRSA COL; S. aureus MRSA COL, read-out: MIC): 0.25 µg/mL (≈ 0.341 µM)

Reference: patent publication US7410974B2, “Halogenated Quinazolinyl nitrofurans as antibacterial agents” (Ulysses Pharmaceutical Products, Inc., priority 2003, dated 2008)
